Measurements published in patent US20230225973A1, “MULTI-LAYERED MEDICAMENT FOR INHALATION” (Mylan Pharma UK Limited, priority 2020, published 2023).

What was measured:
[1] = Aerosolization performance: TIR and FPM from a next generation impactor (NGI), equivalence of MGR001/MGR002 with MGR003; format: physicochemical; details: for FPM, Pass/fail (0.90-1.11) / TIR, Pass/fail (0.90-1.11): 90% CI of ratio of geometric means within 0.90-1.11
Excerpt: The same batches for MGR002 and MGR003 were utilized in obtaining emitted data used to obtain aerosolization performance information. Table 5 below presents the results and equivalence criteria, respectively for 5-[3-(3-Hydroxyphenoxy)azetidin-1-yl]-5-methyl-2,2-diphenylhexanamide hydrochloride of formula II, fluticasone propionate and salmeterol.
The […] (FPM) and mean total impactor recovery (TIR) from a next generation impactor (NGI) for each batch were equivalent, based on the fact that the upper/lower 90% confidence interval of the ratio of the geometric mean, rested between 0.90 and 1.11. […] The fluticasone propionate and salmeterol xinafoate components of the MGR003 drug product also met the same performance targets as the MGR001 250/50 drug product.

[2] = Comparison of fine particle dose (FPD) performance of blended combination, layer filled combination and baseline products; format: physicochemical; details: FIG. 6; product T3 (low shear triple blend)
Experimental: The two options were to either: 1) layer fill blends of the individual products or; 2) low shear mix blends of the individual products. The individual products were either 0.58% w/w salmeterol xinafoate/4% w/w fluticasone propionate combination blend or 4.8% w/w 5-[3-(3-Hydroxyphenoxy)azetidin-1-yl]-5-methyl-2,2-diphenylhexanamide hydrochloride blend.
Four products (L1, L2, L3, and T3) were prepared as outline below. Products L1 and L2 were the baseline products for the layer filled combination product L3, and the blended combination product, T3.
The blend is made of 4.8% w/w 5-[3-(3-Hydroxyphenoxy)azetidin-1-yl]-5-methyl-2,2-diphenylhexanamide hydrochloride mixed with lactose monohydrate in a Diosna high shear blender. The nominal dose of 5-[3-(3-Hydroxyphenoxy)azetidin-1-yl]-5-methyl-2,2-diphenylhexanamide hydrochloride per pocket is 264 mcg.
The blend is made of 0.58% w/w salmeterol xinafoate and 4% w/w fluticasone propionate mixed with lactose monohydrate in a Diosna high shear blender. The nominal doses of salmeterol xinafoate and fluticasone propionate per pocket are 72.5 mcg and 500 mcg, respectively.
The salmeterol xinafoate/fluticasone propionate blend is made of 0.58% w/w salmeterol xinafoate and 4% w/w fluticasone propionate mixed with lactose monohydrate in a Diosna high shear blender. The 5-[3-(3-Hydroxyphenoxy)azetidin-1-yl]-5-methyl-2,2-diphenylhexanamide hydrochloride blend is made of 4.8% w/w 5-[3-(3-Hydroxyphenoxy)azetidin-1-yl]-5-methyl-2,2-diphenylhexanamide hydrochloride mixed with lactose monohydrate in a Diosna high shear blender. The nominal doses of salmeterol xinafoate, fluticasone propionate and 5-[3-(3-Hydroxyphenoxy)azetidin-1-yl]-5-methyl-2,2-diphenylhexanamide hydrochloride per pocket are 72.5 mcg, 500 mcg and 264 mcg, respectively.
The triple blend is prepared by mixing with a low shear Turbula mixer, a 0.58% w/w salmeterol xinafoate, 4% w/w fluticasone propionate blend with 4.8% w/w 5-[3-(3-Hydroxyphenoxy)azetidin-1-yl]-5-methyl-2,2-diphenylhexanamide hydrochloride blend in the ratio 12.5:5.5. […]

[3] = FPM from next generation impactor
[4] = mean total impactor recovery, next generation impactor

CC(C)(CCC(C(N)=O)(c1ccccc1)c1ccccc1)N1CC(Oc2cccc(O)c2)C1.Cl [5-[3-(3-Hydroxyphenoxy)azetidin-1-yl]-5-methyl-2,2-diphenylhexanamide hydrochloride]
FPM, ratio of geometric means (MGR002 divided by MGR003) [1, 3]: 0.95
FPM, Pass/fail (0.90-1.11) ([1]; MGR002 versus MGR003): Pass
TIR, Pass/fail (0.90-1.11) ([1]; MGR002 versus MGR003): Pass
TIR, ratio of geometric means (MGR002 divided by MGR003) [1, 4]: 0.97
FPD of the individual drug in blended combination product T3 versus baseline product [2]: much lower FPD

CCC(=O)O[C@]1(C(=O)SCF)[C@H](C)C[C@H]2[C@@H]3C[C@H](F)C4=CC(=O)C=C[C@]4(C)[C@@]3(F)[C@@H](O)C[C@@]21C [Fluticasone propionate, fluticasone propionate]
FPM, ratio of geometric means (MGR001 divided by MGR003) [1, 3]: 0.99
FPM, Pass/fail (0.90-1.11) ([1]; MGR001 versus MGR003): Pass
TIR, Pass/fail (0.90-1.11) ([1]; MGR001 versus MGR003): Pass
TIR, ratio of geometric means (MGR001 divided by MGR003) [1, 4]: 0.96
FPD of the individual drug in blended combination product T3 versus baseline product [2]: slightly lowered FPD

OCc1cc(C(O)CNCCCCCCOCCCCc2ccccc2)ccc1O (stereo not drawn) [Salmeterol, salmeterol xinafoate]
FPM, ratio of geometric means (MGR001 divided by MGR003) [1, 3]: 1.01
FPM, Pass/fail (0.90-1.11) ([1]; MGR001 versus MGR003): Pass
TIR, Pass/fail (0.90-1.11) ([1]; MGR001 versus MGR003): Pass
TIR, ratio of geometric means (MGR001 divided by MGR003) [1, 4]: 0.97
FPD of the individual drug in blended combination product T3 versus baseline product [2]: more variability
